Assay results published in ChEMBL document CHEMBL1201862, “PubChem BioAssay data set” (2004).
Active and inactive are the calls of the source.

Assays:
Tumor necrosis factor = Tumor necrosis factor (Homo sapiens, UniProt P01375); test: analog potency on TNFa NF-kB signaling – cell-based, revised, SAR follow-up (AID 2337); type: functional
Interleukin-8 = Interleukin-8 (Homo sapiens, UniProt P10145); test: SAR analysis of tumor necrosis factor alpha (TNF-alpha) induced IL-8 secretion in MCF-7/NOD1 cells. [Related pubchem assays (depositor defined):AID1575, AID2250, AID2260]; type: functional, cell-based
HEK293 = test: cells; conditions: Homo sapiens;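 also: cells exposed to compound for 14 hours overnight before viability readout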
Staphylococcus aureus = test: Inhibitors of Bacterial Quorum Sensing Structure Activity Relationship (SAR) Analysis: Dose Response Assay. [Related pubchem assays: 700, 527 ]; type: functional, organism-based
Protein Rev = Protein Rev (Human immunodeficiency virus type 1 group M subtype B (isolate HXB2)(HIV-1), UniProt P04618); test: blockers of HIV Rev/RRE RNA complex – biochemical, fluorescence polarization, HIV-1, dose response (AID 434976); design: species or system Human immunodeficiency virus 1
[1] = biological target: Female germline-specific tumor suppressor gld-1 (Caenorhabditis elegans, UniProt Q17339); test: blockers of GLD-1/TGE RNA complex formation – biochemical, fluorescence polarization, C. elegans, dose response (AID 2802);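 also: fluorescence polarization of labeled TGE RNA bound by purified gld-1 protein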
[2] = biological target: Envelope glycoprotein gp160 (Human immunodeficiency virus 1, UniProt Q6QLK5); test: cell-free HIV fusion peptide-binding blockers – biochemical, uHTS, fluorescence dequenching, […] (AID 1986)
Aminopeptidase N = biological target: T1, Aminopeptidase N (Plasmodium falciparum FcB1/Columbia, UniProt O96935); test: malaria alanyl aminopeptidase activity blockers – biochemical, fluorogenic H-Leu-NHMec substrate, 1536-well (AID 1445); design: species or system Plasmodium falciparum 3D7, 3D7
T1 sequence (O96935 whole entry): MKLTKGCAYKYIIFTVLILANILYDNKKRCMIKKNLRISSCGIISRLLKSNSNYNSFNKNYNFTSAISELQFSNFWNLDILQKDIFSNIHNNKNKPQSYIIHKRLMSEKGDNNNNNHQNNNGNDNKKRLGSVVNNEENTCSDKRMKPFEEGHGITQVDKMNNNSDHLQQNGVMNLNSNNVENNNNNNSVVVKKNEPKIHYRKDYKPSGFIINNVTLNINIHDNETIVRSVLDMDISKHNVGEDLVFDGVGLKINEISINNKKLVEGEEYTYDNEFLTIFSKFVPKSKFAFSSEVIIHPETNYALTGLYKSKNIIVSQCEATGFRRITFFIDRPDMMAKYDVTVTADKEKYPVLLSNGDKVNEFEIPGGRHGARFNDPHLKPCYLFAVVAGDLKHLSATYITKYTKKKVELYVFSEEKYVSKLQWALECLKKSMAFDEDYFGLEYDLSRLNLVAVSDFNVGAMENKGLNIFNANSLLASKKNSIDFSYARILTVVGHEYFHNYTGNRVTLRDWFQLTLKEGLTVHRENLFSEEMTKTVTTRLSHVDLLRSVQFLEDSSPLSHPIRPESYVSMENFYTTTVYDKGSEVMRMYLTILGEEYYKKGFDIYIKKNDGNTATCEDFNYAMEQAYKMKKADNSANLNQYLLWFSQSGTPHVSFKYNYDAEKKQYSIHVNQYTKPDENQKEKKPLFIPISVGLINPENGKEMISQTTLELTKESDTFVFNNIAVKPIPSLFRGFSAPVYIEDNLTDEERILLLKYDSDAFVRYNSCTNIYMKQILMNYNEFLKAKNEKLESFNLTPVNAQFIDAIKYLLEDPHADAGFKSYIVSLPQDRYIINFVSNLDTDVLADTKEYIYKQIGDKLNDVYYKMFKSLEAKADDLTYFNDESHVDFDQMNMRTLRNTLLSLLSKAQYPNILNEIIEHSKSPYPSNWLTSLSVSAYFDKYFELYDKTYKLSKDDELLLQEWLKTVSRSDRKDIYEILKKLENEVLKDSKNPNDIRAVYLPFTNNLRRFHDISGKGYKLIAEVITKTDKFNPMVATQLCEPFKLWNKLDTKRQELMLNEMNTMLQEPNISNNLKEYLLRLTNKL

[3] = HPDE-C7 pancreatic duct cell viability loss – fluorescence, HTS (AID 430); type: functional, cell-based; conditions: Homo sapiens
[4] = viability loss of HPDE-C7K cells – cell-based, fluorescence, HTS, primary screen (AID 431); type: functional; conditions: Homo sapiens
Estrogen receptor beta [5] = biological target: T2, Estrogen receptor beta (Homo sapiens, UniProt Q92731);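 also: recombinant ER-beta bound to coactivator SRC1 peptide in presence of estradiol agonist; inhibitors block coactivator peptide binding and lower the FRET signal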
Estrogen receptor beta [6] = biological target: T2, Estrogen receptor beta; test: blockers of SRC-3 recruitment to ERβ – biochemical, ELISA, streptavidin-HRP readout, orthogonal assay, confirmation (AID 1060)
[7] = biological target: T3, Calpain-2 catalytic subunit (Sus scrofa, UniProt P43367); test: m-calpain protease blockers, concentration series – biochemical, fluorogenic peptide substrate, dose response (AID 1420); type: functional
T3 sequence (P43367 whole entry): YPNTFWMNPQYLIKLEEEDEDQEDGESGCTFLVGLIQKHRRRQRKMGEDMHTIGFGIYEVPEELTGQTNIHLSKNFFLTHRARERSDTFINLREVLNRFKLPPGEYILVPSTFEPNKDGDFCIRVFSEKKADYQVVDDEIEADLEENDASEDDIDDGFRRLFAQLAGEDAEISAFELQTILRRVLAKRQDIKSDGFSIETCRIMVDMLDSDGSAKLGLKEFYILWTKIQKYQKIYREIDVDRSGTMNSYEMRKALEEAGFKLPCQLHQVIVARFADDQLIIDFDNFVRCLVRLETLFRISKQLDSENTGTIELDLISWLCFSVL

[8] = biological target: Induced myeloid leukemia cell differentiation protein Mcl-1 (Homo sapiens, UniProt Q07820); type: functional
Large T antigen = Large T antigen (Simian virus 40, UniProt P03070); test: A confirmatory biochemical assay using the ADP-Hunter methodology, purified TAg, and ATP to quantify activity of synthesized compounds that inhibit the ATPase activity of Tag (3). [Related pubchem assays (depositor defined):AID1903, AID1909, AID2102, AID2501, AID2615, AID2775, AID435001, AID449729]; design: species or system Betapolyomavirus macacae
[9] = rise of 2N DNA cells, HeLa – IC50, dose response (AID 1117349); type: functional, cell-based
[10] = CellTiter-Glo luminescence survival assay, SW480 colon tumor line, concentration-response curve, half-maximal inhibitory concentration (AID 1117338); type: functional
[11] = RKO cell viability reduction, dose response, CellTiter-Glo luminescence (AID 1117322); type: functional
[12] = cytotoxicity toward HCT116 cells – cell-based, CellTiter-Glo luminescence, IC50, dose response (AID 1117332); type: functional; conditions: HCT-116
[13] = SNU-C1 cell viability reduction, dose response, CellTiter-Glo luminescence (AID 1117323); type: functional, cell-based
[14] = glucagon-like peptide-1 release potency in STC-1, concentration-response, half-maximal inhibitory concentration in the STC-1 line (AID 1117345); type: functional, cell-based
[15] = cytotoxicity toward Colo320 cells – cell-based, CellTiter-Glo luminescence, IC50, dose response (AID 1117334); type: functional; conditions: COLO 320
[16] = rise of 4N DNA cells, HeLa – IC50, dose response (AID 1117351); type: functional, cell-based
[17] = cytotoxicity toward HT-29 cells – cell-based, CellTiter-Glo luminescence, IC50, dose response (AID 1117330); type: functional
[18] = Reduced DLD-1 viability, concentration-response, CellTiter-Glo luminescence (AID 1117352); type: functional
[19] = HCT116 cell viability decrease, GSK3B pretreatment – CellTiter-Glo, IC50, dose response (AID 1117339); type: functional; conditions: HCT-116
[20] = Potency on glucagon-like peptide 1 release, dose-response in NCI-H716 cell line, half maximal inhibitory concentration (AID 1117344); type: functional, cell-based

T2 sequence (Q92731 whole entry): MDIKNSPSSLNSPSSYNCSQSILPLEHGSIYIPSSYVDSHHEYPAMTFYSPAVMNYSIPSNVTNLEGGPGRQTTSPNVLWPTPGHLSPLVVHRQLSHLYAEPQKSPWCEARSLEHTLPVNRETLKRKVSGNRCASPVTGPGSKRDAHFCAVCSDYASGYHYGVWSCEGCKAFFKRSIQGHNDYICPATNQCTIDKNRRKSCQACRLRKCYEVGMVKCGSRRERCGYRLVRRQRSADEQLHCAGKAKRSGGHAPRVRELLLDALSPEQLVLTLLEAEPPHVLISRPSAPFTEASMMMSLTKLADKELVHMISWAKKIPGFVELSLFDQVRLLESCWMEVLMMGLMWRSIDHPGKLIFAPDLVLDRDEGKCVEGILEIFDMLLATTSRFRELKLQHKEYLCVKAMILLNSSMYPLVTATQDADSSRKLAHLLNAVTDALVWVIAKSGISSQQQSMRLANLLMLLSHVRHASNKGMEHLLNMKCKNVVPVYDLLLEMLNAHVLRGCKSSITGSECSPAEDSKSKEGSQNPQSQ
Chain of Protein Rev (P04618 whole entry): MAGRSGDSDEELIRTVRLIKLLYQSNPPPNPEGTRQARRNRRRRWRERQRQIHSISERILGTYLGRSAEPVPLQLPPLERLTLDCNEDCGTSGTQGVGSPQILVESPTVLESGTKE
Chain of Interleukin-8 (P10145 whole entry): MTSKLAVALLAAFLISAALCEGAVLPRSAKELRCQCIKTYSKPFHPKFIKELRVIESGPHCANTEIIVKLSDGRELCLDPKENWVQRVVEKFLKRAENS
Chain of Induced myeloid leukemia cell differentiation protein Mcl-1 (Q07820 whole entry): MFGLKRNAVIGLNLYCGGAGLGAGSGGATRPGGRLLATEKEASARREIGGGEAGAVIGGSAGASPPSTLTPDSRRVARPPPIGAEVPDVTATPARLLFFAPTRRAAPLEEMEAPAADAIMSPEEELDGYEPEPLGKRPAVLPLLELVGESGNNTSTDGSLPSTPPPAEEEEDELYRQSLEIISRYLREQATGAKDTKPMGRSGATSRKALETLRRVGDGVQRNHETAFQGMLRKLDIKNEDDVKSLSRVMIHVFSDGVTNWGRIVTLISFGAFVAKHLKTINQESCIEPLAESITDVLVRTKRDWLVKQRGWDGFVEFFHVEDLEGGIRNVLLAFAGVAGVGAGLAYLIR
Chain of Female germline-specific tumor suppressor gld-1 (Q17339 whole entry, the tested form may be a part): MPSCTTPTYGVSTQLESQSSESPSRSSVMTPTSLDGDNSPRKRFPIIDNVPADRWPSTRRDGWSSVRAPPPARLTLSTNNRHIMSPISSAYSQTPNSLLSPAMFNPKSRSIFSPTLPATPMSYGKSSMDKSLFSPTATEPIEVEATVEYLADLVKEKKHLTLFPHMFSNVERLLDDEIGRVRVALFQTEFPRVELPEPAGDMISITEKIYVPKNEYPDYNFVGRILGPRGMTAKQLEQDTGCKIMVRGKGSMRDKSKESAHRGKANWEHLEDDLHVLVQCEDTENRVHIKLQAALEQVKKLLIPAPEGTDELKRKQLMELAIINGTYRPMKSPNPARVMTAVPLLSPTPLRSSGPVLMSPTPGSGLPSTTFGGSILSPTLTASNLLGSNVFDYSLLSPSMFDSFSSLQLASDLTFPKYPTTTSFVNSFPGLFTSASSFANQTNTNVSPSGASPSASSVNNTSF
Chain of Tumor necrosis factor (P01375 whole entry): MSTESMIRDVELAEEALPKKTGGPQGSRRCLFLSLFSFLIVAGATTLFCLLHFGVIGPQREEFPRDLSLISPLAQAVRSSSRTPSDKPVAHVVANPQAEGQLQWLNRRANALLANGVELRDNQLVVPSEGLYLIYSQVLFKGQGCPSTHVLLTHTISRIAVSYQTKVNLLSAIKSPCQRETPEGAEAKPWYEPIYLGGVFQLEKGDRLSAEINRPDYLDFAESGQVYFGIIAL
Chain of Envelope glycoprotein gp160 (Q6QLK5 whole entry, the tested form may be a part): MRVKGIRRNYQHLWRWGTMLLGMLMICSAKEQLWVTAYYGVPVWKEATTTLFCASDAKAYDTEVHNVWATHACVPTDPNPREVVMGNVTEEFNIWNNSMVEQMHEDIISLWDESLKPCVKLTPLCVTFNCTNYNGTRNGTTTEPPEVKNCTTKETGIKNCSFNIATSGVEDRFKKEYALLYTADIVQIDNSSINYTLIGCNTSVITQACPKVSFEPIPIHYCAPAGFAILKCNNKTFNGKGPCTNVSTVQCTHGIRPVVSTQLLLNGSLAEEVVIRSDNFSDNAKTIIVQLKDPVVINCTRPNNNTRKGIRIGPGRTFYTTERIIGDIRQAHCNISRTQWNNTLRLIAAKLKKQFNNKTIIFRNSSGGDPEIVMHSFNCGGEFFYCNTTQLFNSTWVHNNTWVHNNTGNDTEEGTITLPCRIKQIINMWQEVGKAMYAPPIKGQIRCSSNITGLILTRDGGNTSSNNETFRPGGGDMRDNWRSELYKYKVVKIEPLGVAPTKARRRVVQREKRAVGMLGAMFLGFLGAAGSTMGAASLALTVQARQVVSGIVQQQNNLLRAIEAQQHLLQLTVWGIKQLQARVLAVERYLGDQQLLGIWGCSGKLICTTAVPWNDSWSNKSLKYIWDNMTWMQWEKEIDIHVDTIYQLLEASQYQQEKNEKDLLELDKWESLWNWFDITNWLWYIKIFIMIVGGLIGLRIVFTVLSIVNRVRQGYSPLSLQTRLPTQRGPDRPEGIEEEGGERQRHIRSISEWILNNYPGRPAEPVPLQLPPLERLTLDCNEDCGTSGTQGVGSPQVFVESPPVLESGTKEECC
Chain of Large T antigen (P03070 whole entry): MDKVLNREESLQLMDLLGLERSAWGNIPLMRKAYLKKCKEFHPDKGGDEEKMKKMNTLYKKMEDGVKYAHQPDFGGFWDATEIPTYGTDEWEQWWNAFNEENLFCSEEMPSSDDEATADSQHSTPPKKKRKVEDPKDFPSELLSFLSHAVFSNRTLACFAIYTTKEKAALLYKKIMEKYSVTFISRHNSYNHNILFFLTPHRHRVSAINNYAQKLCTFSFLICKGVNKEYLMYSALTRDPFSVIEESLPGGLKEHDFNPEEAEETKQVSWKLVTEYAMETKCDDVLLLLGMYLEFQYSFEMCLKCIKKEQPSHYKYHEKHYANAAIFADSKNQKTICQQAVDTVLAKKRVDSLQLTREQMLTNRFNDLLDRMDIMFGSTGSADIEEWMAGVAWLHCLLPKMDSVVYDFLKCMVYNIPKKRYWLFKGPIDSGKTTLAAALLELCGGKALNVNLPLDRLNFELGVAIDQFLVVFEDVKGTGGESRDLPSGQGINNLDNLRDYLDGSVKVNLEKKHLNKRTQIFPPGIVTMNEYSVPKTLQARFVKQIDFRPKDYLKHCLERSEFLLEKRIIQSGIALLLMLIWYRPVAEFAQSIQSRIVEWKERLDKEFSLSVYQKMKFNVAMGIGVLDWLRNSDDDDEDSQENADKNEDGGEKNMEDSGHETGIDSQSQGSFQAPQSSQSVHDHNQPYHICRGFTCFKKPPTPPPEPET

Cc1ccc(S(=O)(=O)n2cnc3ccccc32)cc1
IC50 (Tumor necrosis factor): > 20 µM (inactive)
IC50 (Interleukin-8): > 5 µM (inactive)
IC50 (HEK293): > 20 µM (inactive)

O=C(O)c1ccccc1Nc1cccc2c1C(=O)c1ccccc1C2=O
IC50 (Staphylococcus aureus): 1.05 µM (active)

CC1CN(C2=Nc3cccc4cccc2c34)CC(C)O1 (configuration not stated)
IC50 (Protein Rev): 18.2 µM (not active)
IC50 [1]: 9.4 µM (active)

Oc1c(Cl)cc(Cl)cc1Sc1cc(Cl)cc(Cl)c1O [BITHIONOL]
IC50 [2]: 6.16 µM (active)
IC50 (Aminopeptidase N): 42.9 µM (active)
EC50 [3]: 1.21 µM (active)
EC50 [4]: 1.34 µM (active)
IC50 (Estrogen receptor beta [5]): 8.15 µM (active)
IC50 (Estrogen receptor beta [6]): > 109 µM (not active)
IC50 [7]: 4.75 µM (not active)
IC50 [8]: 1.9 µM (active)
IC50 (Large T antigen): 35.7 µM (active)
IC50 [9]: > 10 µM (inactive)
IC50 [10]: 1 nM (active)
IC50 [11]: 1 nM (active)
IC50 [12]: 1 nM (active)
IC50 [13]: 8.67 nM (active)
IC50 [14]: > 20 µM (inactive)
IC50 [15]: 15 nM (active)
IC50 [16]: > 10 µM (inactive)
IC50 [17]: 996 nM (active)
IC50 [18]: 1 nM (active)
IC50 [19]: 1 nM (active)
IC50 [20]: 19.4 µM (inactive)
